What all share (type): biochemical
One test addresses PIM3 (Homo sapiens (Human), UniProt Q86V86). Description: Pim kinase binding activity, Caliper LC3000 microfluidic peptide phosphorylation assay, PIM3. The settings on record: 10 μM ATP, 90 min, room temperature; read-out: PIM3 LC3K (KI). An outline of the steps: (§1)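 Pim-specific fluorescent peptide phosphorylated in 10 mM HEPES pH 7.2, 10 mM MgCl2, 0.01% Tween 20, 2 mM DTT for 90 min at room temperature, then stopped with EDTA. Product and substrate separated by microfluidic mobility shift; Ki derived from substrate conversion.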

The target in another test is PIM2 (Homo sapiens (Human), UniProt Q9P1W9). Description: Pim kinase binding activity, Caliper LC3000 microfluidic peptide phosphorylation assay, PIM2. The settings on record: 10 μM ATP, 90 min, room temperature; read-out: PIM2 LC3K (KI). An outline of the steps:
as §1

Another test concerns the target PIM1 (Homo sapiens (Human), UniProt P11309). The test can be described thus: biochemical. The settings on record: 10 μM ATP, 90 min, room temperature; read-out: PIM1 LC3K (KI). Here is the method:
A fluorescent-labeled Pim-specific peptide substrate, was custom synthesized by American Peptide Company (Sunnyvale, Calif.). Reaction Buffer contained 10 mM HEPES, pH 7.2, 10 mM MgCl2, 0.01% Tween 20, 2 mM DTT. Termination Buffer contained 190 mM HEPES, pH 7.2, 0.015% Brij-35, 0.2% Coating Reagent 3 (Caliper Life Sciences, Hopkinton, Mass.), 20 mM EDTA. Separation Buffer contained 100 mM HEPES, pH 7.2, 0.015% Brij-35, 0.1% Coating Reagent 3, 1:200 Coating Reagent 8 (Caliper Life Sciences, Hopkinton, Mass.), 10 mM EDTA and 5% DMSO.
PIM reactions were carried out in a final volume of 10 μL per well in a 384-well plate. […] After 90 minutes of incubation at room temperature, the phosphorylation reaction was stopped by the addition of 10 μL Termination Buffer. The product and substrate in each independent reaction were separated on a 12-sipper microfluidic chip (Caliper Life Sciences, Hopkinton, Mass.) run on a Caliper LC3000® (Caliper Life Sciences, Hopkinton, Mass.). The separation of product and substrate was optimized by choosing voltages and pressure using Caliper's Optimizer software (Hopkinton, Mass.). […] Substrate conversion was calculated from the electropherogram using HTS Well Analyzer software (Caliper Life Sciences, Hopkinton, Mass.). Ki values for the test compound were calculated.

Ki data for 23 compounds are collected here from patent US9434725B2, “5-azaindazole compounds and methods of use” (priority 2012, dated 2016).

Where a name gives a salt, the structure may show the parent alone.

PIM1, sequence (P11309 whole entry): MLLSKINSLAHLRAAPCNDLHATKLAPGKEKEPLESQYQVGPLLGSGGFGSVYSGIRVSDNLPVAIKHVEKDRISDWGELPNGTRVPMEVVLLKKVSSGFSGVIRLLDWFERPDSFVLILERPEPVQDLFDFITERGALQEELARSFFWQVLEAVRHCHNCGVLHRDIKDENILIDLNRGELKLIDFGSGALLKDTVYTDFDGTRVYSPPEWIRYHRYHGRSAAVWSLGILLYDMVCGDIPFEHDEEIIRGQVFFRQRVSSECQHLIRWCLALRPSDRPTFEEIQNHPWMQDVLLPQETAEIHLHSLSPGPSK
PIM2, sequence (Q9P1W9 whole entry): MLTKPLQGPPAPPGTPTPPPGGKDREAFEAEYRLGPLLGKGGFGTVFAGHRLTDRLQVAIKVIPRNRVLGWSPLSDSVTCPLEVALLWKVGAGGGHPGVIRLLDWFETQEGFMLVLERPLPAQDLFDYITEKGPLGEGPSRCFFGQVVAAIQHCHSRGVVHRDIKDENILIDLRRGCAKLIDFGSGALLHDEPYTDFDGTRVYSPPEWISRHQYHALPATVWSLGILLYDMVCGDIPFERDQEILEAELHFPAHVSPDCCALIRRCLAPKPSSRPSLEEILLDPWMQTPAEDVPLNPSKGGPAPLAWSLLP

By Ki is commonly meant a dissociation constant, usually derived from enzyme kinetics or from competition with a known ligand. As for `N#Cc1cncc(-c2cc3c(cn2)cnn3-c2cccc(N3CCNCC3)n2)n1` [Compound 177, 6-[1-(6-piperazin-1-yl-2-pyridyl)pyrazolo[4,3-c]pyridin-6-yl]pyrazine-2-carbonitrile], the Ki at PIM3 is 0.363 nM; at PIM2, 16.1 nM; at PIM1, 1.04 nM.
The matching figures for `Cc1cncc(-c2cc3c(cn2)cnn3-c2cc(C3COC3)cc(N3CCC[C@H](N)C3)n2)n1` [Compound 250, (S)-1-(6-(6-(6-methylpyrazin-2-yl)-1H-pyrazolo[4,3-c]pyridin-1-yl)-4-(oxetan-3-yl)pyridin-2-yl)piperidin-3-amine]: 0.743 nM, 24.8 nM and 3.89 nM.
On the same counts, the results for `Cc1cncc(-c2cc3c(cn2)cnn3-c2cccc(C3(O)CCCNC3)n2)n1` (stereo not drawn) [Compound 288, 3-(6-(6-(6-methylpyrazin-2-yl)-1H-pyrazolo[4,3-c]pyridin-1-yl)pyridin-2-yl)piperidin-3-ol] are 0.564 nM, 5.56 nM and 0.918 nM.
Take `Cc1cncc(-c2cc3c(cn2)cnn3-c2ccc(C)c(N3CCC[C@H](N)C3=O)n2)n1` [Compound 245, (3S)-3-amino-1-[3-methyl-6-[6-(6-methylpyrazin-2-yl)pyrazolo[4,3-c]pyridin-1-yl]-2-pyridyl]piperidin-2-one]: the Ki on PIM3 was determined as 2.13 nM; on PIM2, 52.5 nM; at PIM1, 5.61 nM.
On the same counts, the results for `Cc1cncc(-c2cc3c(cn2)cnn3-c2ccc(C(F)(F)F)c(N3CCNCC(O)C3)n2)n1` (stereo not drawn) [Compound 219, 1-(6-(6-(6-methylpyrazin-2-yl)-1H-pyrazolo[4,3-c]pyridin-1-yl)-3-(trifluoromethyl)pyridin-2-yl)-1,4-diazepan-6-ol] are 0.265 nM, 12.5 nM and 0.433 nM.
With `CCn1cc(-c2cc3c(cn2)cnn3-c2cccc(N3CC[C@H](N)C3)n2)cn1` [Compound 135, (S)-1-(6-(6-(1-ethyl-1H-pyrazol-4-yl)-1H-pyrazolo[4,3-c]pyridin-1-yl)pyridin-2-yl)pyrrolidin-3-amine], the figures for the Ki on PIM3, at PIM2 and on PIM1 were 0.84 nM, 11.1 nM and 2.12 nM, respectively.
The matching figures for `OC[C@@H]1CCCN1c1cncc(-c2cc3c(cn2)cnn3-c2cccc(N3CCNCC3)n2)n1` [Compound 280, (S)-(1-(6-(1-(6-(piperazin-1-yl)pyridin-2-yl)-1H-pyrazolo[4,3-c]pyridin-6-yl)pyrazin-2-yl)pyrrolidin-2-yl)methanol dihydrochloride]: 0.101 nM, 18 nM and 0.051 nM.
For the compound `Cc1cncc(-c2cc3c(cn2)cnn3-c2cccc(N3CCC(O)C(O)C3)n2)n1` (stereo not drawn) [Compound 312, 1-(6-(6-(6-methylpyrazin-2-yl)-1H-pyrazolo[4,3-c]pyridin-1-yl)pyridin-2-yl)piperidine-3,4-diol], the Ki was 0.481 nM on PIM3, 3.58 nM at PIM2 and 0.644 nM at PIM1.
As to `Cc1cc(-c2cc3c(cn2)cnn3-c2cccc(N3CCNCC3)n2)sn1` [Compound 119, 3-methyl-5-[1-(6-piperazin-1-yl-2-pyridyl)pyrazolo[4,3-c]pyridin-6-yl]isothiazole], the Ki at PIM3 came out at 0.307 nM; on PIM2, 8.49 nM; at PIM1 it was 0.426 nM.
For `Cc1cncc(-c2cc3c(cn2)cnn3-c2cccc(N3CCC4(CCNCC4)C3)n2)n1` [Compound 199, 2-[6-[6-(6-methylpyrazin-2-yl)pyrazolo[4,3-c]pyridin-1-yl]-2-pyridyl]-2 8-diazaspiro[4.5]decane], the Ki amounted to 0.655 nM on PIM3, 13.7 nM on PIM2 and 0.716 nM on PIM1.
For `Cn1cc(-c2cc3c(cn2)cnn3-c2cn(C)c(=O)c(N3CCC[C@@H](N)C3)n2)cn1` [Compound 243, (R)-3-(3-aminopiperidin-1-yl)-1-methyl-5-(6-(1-methyl-1H-pyrazol-4-yl)-1H-pyrazolo[4,3-c]pyridin-1-yl)pyrazin-2(1H)-one], the Ki at PIM3 is 8.64 nM; on PIM2 it was 528 nM; at PIM1, 57.1 nM.
On the same counts, the results for `FC(F)(F)Cn1cc(-c2cc3c(cn2)cnn3-c2cccc(N3CC4(CNC4)C3)n2)cn1` [Compound 267, 1-(6-(2,6-Diazaspiro[3.3]heptan-2-yl)pyridin-2-yl)-6-(1-(2,2,2-trifluoroethyl)-1H-pyrazol-4-yl)-1H-pyrazolo[4,3-c]pyridine] are 6.01 nM, 30.3 nM and 3.81 nM.
The matching figures for `Cn1ncc(-c2cc3c(cn2)cnn3-c2ccccc2F)c1C1=CCNCC1` [Compound 314, 1-(2-fluorophenyl)-6-(1-methyl-5-(1,2,3,6-tetrahydropyridin-4-yl)-1H-pyrazol-4-yl)-1H-pyrazolo[4,3-c]pyridine]: 166 nM, 1100 nM and 130 nM.
On the same counts, the results for `Cc1cncc(-c2cc3c(cn2)cnn3-c2cnc(O)c(N3CCC[C@H](N)C3)n2)n1` [Compound 223, 3-[(3S)-3-amino-1-piperidyl]-5-[6-(6-methylpyrazin-2-yl)pyrazolo[4 3-c]pyridin-1-yl]pyrazin-2-ol] are 1.84 nM, 7.11 nM and 2.37 nM.
As to `c1cc(N2CCCNCC2)nc(-n2ncc3cnc(-c4cncnc4)cc32)c1` [Compound 175, 1-(6-(1,4-Diazepan-1-yl)pyridin-2-yl)-6-(pyrimidin-5-yl)-1H-pyrazolo[4,3-c]pyridine], the Ki on PIM3 turned out to be 6.72 nM; at PIM2, 196 nM; at PIM1, 11.3 nM.
The matching figures for `c1cc(N2CCNCC2)nc(-n2ncc3cnc(-c4cncc(C5CC5)c4)cc32)c1` [Compound 111, 6-(5-cyclopropylpyridin-3-yl)-1-(6-(piperazin-1-yl)pyridin-2-yl)-1H-pyrazolo[4,3-c]pyridine]: 0.181 nM, 9.11 nM and 0.165 nM.
On to `COc1ccc(-n2ncc3cnc(-c4cncc(C)n4)cc32)nc1N1CCCNC1=O` [Compound 251, 1-[3-methoxy-6-[6-(6-methylpyrazin-2-yl)pyrazolo[4,3-c]pyridin-1-yl]-2-pyridyl]hexahydropyrimidin-2-one], for which the Ki at PIM3 worked out at 31.6 nM; at PIM2, 181 nM; at PIM1, 48.8 nM.
The matching figures for `CCn1cc(-c2cc3c(cn2)cnn3-c2cncc(N3CCCNCC3)n2)cn1` [Compound 163, 1-(6-(1,4-diazepan-1-yl)pyrazin-2-yl)-6-(1-ethyl-1H-pyrazol-4-yl)-1H-pyrazolo[4,3-c]pyridine]: 2.96 nM, 26.6 nM and 1.63 nM.
For `CCn1cc(-c2cc3c(cn2)cnn3-c2cccc(N3CCCC(N)CC3)n2)cn1` (stereo not drawn) [Compound 140, 1-(6-(6-(1-ethyl-1H-pyrazol-4-yl)-1H-pyrazolo[4,3-c]pyridin-1-yl)pyridin-2-yl)azepan-4-amine], the values for the Ki on PIM3, at PIM2 and on PIM1 were 0.454 nM, 13.4 nM and 1.04 nM, respectively.
On the same counts, the results for `c1cc(N2CCCNCC2)nc(-n2ncc3cnc(-c4cnn(CC5CC5)c4)cc32)c1` [Compound 161, 1-(6-(1,4-Diazepan-1-yl)pyridin-2-yl)-6-(1-(cyclopropylmethyl)-1H-pyrazol-4-yl)-1H-pyrazolo[4,3-c]pyridine] are 2.19 nM, 18.8 nM and 1.86 nM.
The matching figures for `FC(F)n1cc(-c2cc3c(cn2)cnn3-c2cccc(N3CCCNCC3)n2)cn1` [Compound 173, 1-(6-(1,4-Diazepan-1-yl)pyridin-2-yl)-6-(1-(difluoromethyl)-1H-pyrazol-4-yl)-1H-pyrazolo[4,3-c]pyridine]: 1.09 nM, 9.54 nM and 1.21 nM.
Take `Cc1cncc(-c2cc3c(cn2)cnn3-c2cnc(C3CC3)c(N3CCC[C@H](N)C3)n2)n1` [Compound 238, (3S)-1-[3-cyclopropyl-6-[6-(6-methylpyrazin-2-yl)pyrazolo[4,3-c]pyridin-1-yl]pyrazin-2-yl]piperidin-3-amine]: the values for the Ki at PIM3, at PIM2 and at PIM1 were 0.032 nM, 0.257 nM and 0.026 nM, respectively.
The matching figures for `Cc1cnc(O)c(-c2cc3c(cn2)cnn3-c2cncc(N3CCCNCC3)n2)c1` [Compound 164, 3-(1-(6-(1,4-diazepan-1-yl)pyrazin-2-yl)-1H-pyrazolo[4,3-c]pyridin-6-yl)-5-methylpyridin-2-ol]: 14.8 nM, 527 nM and 50.2 nM.
